How the values were obtained:
[1] = system: Mouse granulosa cells; experiment: Estradiol production by granulosa cells (ELISA); type: cell-based; settings: FSH plus inhibitor, 48 hours
Description: Estradiol was determined by ELISA.
Estradiol Measurement. Cell culture medium used for steroid determinations by ELISA (DRG Instruments; RRID: AB_2756386)) following manufacturer's instructions.

[2] = system: human granulosa cells; experiment: CYP19A1 protein (western blot) in granulosa cells of IVF patients with different etiologies; type: cell-based; settings: patient with anovulation, HG alone or in the presence of FSH
Description: Primary granulosa cells were obtained from patients with normal ovarian function (left panel) or patients diagnosed with polycystic ovarian syndrome or anovulation (right panel). […] The intensity of the CYP19a1 and BACT bands was quantified, and the data expressed as a ratio between aromatase and BACT. Different letters represent significant differences, one-way ANOVA followed by Tukey test, p<0.05, (n=5).
Human Granulosa Cells. Human cells were collected from the follicular aspirates of women undergoing in vitro fertilization treatment at the University of Illinois at Chicago Fertility Center, under Institute Review Board approval. Informed consents were obtained from all women. […] Cells were transported immediately to the laboratory where they were dispersed by hyaluronidase digestion (8 IU/μl) and then centrifuged at 500×g for 5 minutes. Cells were incubated at room temperature in red blood cell lysis buffer for 2 minutes to eliminate contaminating erythrocytes. The cells were again centrifuged at 500×g for 5 minutes and suspended in 0.5 ml of serum-free DMEM/F12-0.25% BSA medium containing antibiotics. […] To investigate protein expression, cells were plated at a density of 200000 cells/well in 6-well plates coated with reconstituted basement membrane sold under the tradename Matrigel® (DB Biosciences). […] Each data point reflects a result obtained from individual patients. […]

[3] = system: primary human granulosa cells; experiment: mRNA expression of FSH target genes in primary human granulosa cells; type: cell-based
Description: Different letters represent significant differences (mean±SEM, N≥7, one-way ANOVA followed by Tukey, p<0.05).
Human Granulosa Cells. Human cells were collected from the follicular aspirates of women undergoing in vitro fertilization treatment at the University of Illinois at Chicago Fertility Center, under Institute Review Board approval. Informed consents were obtained from all women. In a subset of patients, additional information was collected to compare the effect of SIK inhibition in patients with different etiologies. Cells were transported immediately to the laboratory where they were dispersed by hyaluronidase digestion (8 IU/μl) and then centrifuged at 500×g for 5 minutes. Cells were incubated at room temperature in red blood cell lysis buffer for 2 minutes to eliminate contaminating erythrocytes. The cells were again centrifuged at 500×g for 5 minutes and suspended in 0.5 ml of serum-free DMEM/F12-0.25% BSA medium containing antibiotics. To investigate mRNA expression, cells were plated at a density of 30000 cells/well in 24-well plates coated with reconstituted basement membrane sold under the tradename Matrigel® (DB Biosciences). To investigate protein expression, cells were plated at a density of 200000 cells/well in 6-well plates coated with reconstituted basement membrane sold under the tradename Matrigel® (DB Biosciences). […] Each data point reflects a result obtained from individual patients. Cells from each patient were cultured separately.
(§1) mRNA Quantification. Total RNA was isolated at the end of each experiment using TRIzol™ reagent (Invitrogen) according to the manufacturer's protocol. The isolated RNA was reverse-transcribed using anchored oligo-dT primers (IDT, Coralville, Iowa) and Moloney Murine Leukemia Virus reverse transcriptase (Invitrogen) at 37° C. for 1 hour. The resulting cDNA was diluted with water to a final volume of 100 μl and 5 μl of diluted cDNA was used for each qPCR reaction. Gene expression is reported relative to ribosomal protein L19 mRNA (Rp119).

[4] = system: rat granulosa cells; experiment: Cyp19a1 (aromatase) mRNA in primary rat granulosa cells, qPCR relative to Rpl19; type: cell-based; settings: for FSH-stimulation of aromatase (Cyp19a1 mRNA): FSH plus inhibitor vs FSH, 48 hours, rat granulosa cells (rat and mouse)
Description: Cyp19a1 mRNA levels were quantified 48 hours later and expressed as relative levels to ribosomal L19 protein (Rp119).
FIG. 5A, Expression of each SIK isoform in rat granulosa cells exposed to scrambled oligos (shSCR) or anti-SIK1 (shSIK1), SIK2 (shSIK2), or SIK3 (shSIK3) shRNAs. *p<0.05, **p<0.01, t-test, n=3. FIG. 5B, Cyp19a1, STARD1, and CYP11a1 relative mRNA expression levels after exposure to shSCR, shSIK1, shSIK2, or shSIK3. […] FIG. 5C, Inverse correlation between SIK2 knockdown with CYP19a1 expression in rat granulosa cells.
(§2) Cyp19a1 mRNA levels were quantified 48 hours later and expressed as relative levels to Rp119. Different letters represent significant differences (mean±SEM, n=5, one-way ANOVA followed by Tukey, p<0.05). FIG. 8B, Immature 23-day-old female mice were injected i.p. with YKL or vehicle (PBS). Two hours later, animals were treated with PMSG or PMSG plus YKL. The expression of CYP19a1, CYP11a1, and STARD1 was quantified 48 hours later. *p<0.05, t-test, n=7.
Rat Granulosa Cells. Rat granulosa cells were isolated from immature rats treated with estradiol for three days. Cells were cultured and treated as described for human granulosa cells. Rat experiments were approved by the Biologic Resources Laboratory (BRL) of the University of Illinois at Chicago.
as §1

[5] = system: granulosa cells; experiment: In vivo treatment of immature mice with SIK inhibitor before PMSG, granulosa cell mRNA; settings: immature female mice, 10 mg/kg i.p. 2 h before and with PMSG, 48 hours
Description: as §2
In vivo Treatment with SIK Inhibitors. […] Controls were injected with 4 IU PMSG alone. granulosa cells were collected 48 hours after PMSG.
as §1

[6] = system: SIK; settings: in vivo; cited from earlier work

Row | Structure (SMILES) | Stimulation of estradiol production by FSH [1] | CYP19A1 levels [2] | IGF2 mRNA expression, FSH plus inhibitor vs FSH alone ([3]; 48 hours) | IGF2 mRNA levels, inhibitor alone vs controls ([3]; absence of FSH) | CYP11A1 mRNA levels, inhibitor alone ([3]; no FSH) | STARD1 mRNA levels, inhibitor alone ([3]; no FSH) | FSH-stimulation of aromatase (Cyp19a1 mRNA) [4] | Cyp19a1 mRNA levels, inhibitor alone ([4]; absence of FSH, HG at 1 or 3 μM) | CYP19A1 mRNA levels, increase vs FSH only ([3]; FSH plus inhibitor, n=16 patients, P<0.0001) | CYP19A1 mRNA levels, inhibitor alone ([3]; no FSH) | Cyp11a1 mRNA induction by PMSG [5] | Stimulatory effect of PMSG on Cyp19a1 mRNA [5] | Stimulatory effect of PMSG on Stard1 mRNA [5] | Phosphorylation of a known SIK substrate [6]
1 | COc1ccc(N(C(=O)Nc2c(C)cccc2C)c2cc(Nc3ccc(N4CCN(C)CC4)cc3)ncn2)c(OC)c1 [HG-9-91-01] | potentiated the stimulation of estradiol production by FSH in a dose-dependent manner | stimulated CYP19A1 strongly | tended to be higher | increased IGF2 mRNA levels significantly | enough to increase STARD1 and CYP11A1 mRNA levels | enough to increase STARD1 and CYP11A1 mRNA levels | potentiated FSH-stimulation of aromatase in a concentration-dependent manner | increased Cyp19a1 mRNA levels | – | – | – | – | – | –
2 | O=C(NCCCNc1nc(Nc2cccc(CN3CCOCC3)c2)ncc1C1CC1)C1CCC1 [MRT67307] | potentiated the stimulation of estradiol production by FSH in a dose-dependent manner | – | – | – | – | – | Comparable findings | – | 3 fold | did not affect CYP19A1 mRNA levels | – | – | – | –
3 | COc1ccc(N2C(=O)N(c3c(C)cccc3Cl)Cc3cnc(Nc4ccc(C5CCN(C)CC5)cc4OC)nc32)nc1 [YKL-05-099] | – | – | – | – | – | – | enhances the stimulatory effect of FSH on Cyp19a1 mRNA expression in a concentration-dependent manner | – | – | – | only a trend to increase Cyp11a1 mRNA induction | enhanced the stimulatory effect of PMSG on Cyp19a1 and Stard1 significantly | enhanced the stimulatory effect of PMSG on Cyp19a1 and Stard1 significantly | reduces phosphorylation of a known SIK substrate
